Results: PubChem BioAssay (NCI)
Values joined by “and” are separate entries in the source; they are usually repeats but may differ in a detail not shown here. Equal values may be shown once.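 These data come from cells grown in 96-well plates and exposed to compound for 48 hours at five concentrations. Here, GI50 denotes the concentration required for 50% inhibition of growth. Definition used: TGI = concentration required for complete inhibition of growth.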 Where a SMILES comes first, the peptide text is derived from it. Bridges are numbered along the chain shown (N, C = ends). [ ]: non-standard residue; d: D form. aThr = C[C@H](O)[C@H](N)C(=O)O

Columns and labels:
Experiment in all cases: DTP human tumour cell line panel, 48 h
ACHN renal = system: ACHN renal
DU-145 prostate = system: DU-145 prostate
HOP-92 NSCLC = system: HOP-92 NSCLC
HS 578T breast = system: HS 578T breast
HT29 colon = system: HT29 colon
NCI-H23 lung = system: NCI-H23 lung
SK-MEL-28 melanoma = system: SK-MEL-28 melanoma
SN12C renal = system: SN12C renal
SW-620 colon = system: SW-620 colon
TK-10 renal = system: TK-10 renal

Row | Structure (SMILES) | GI50 (ACHN renal) | TGI (ACHN renal) | GI50 (DU-145 prostate) | TGI (DU-145 prostate) | GI50 (HOP-92 NSCLC) | TGI (HOP-92 NSCLC) [µM] | GI50 (HS 578T breast) | TGI (HS 578T breast) | GI50 (HT29 colon) | TGI (HT29 colon) [µM] | GI50 (NCI-H23 lung) | TGI (NCI-H23 lung) | GI50 (SK-MEL-28 melanoma) | TGI (SK-MEL-28 melanoma) | GI50 (SN12C renal) | TGI (SN12C renal) | GI50 (SW-620 colon) | TGI (SW-620 colon) | GI50 (TK-10 renal) | TGI (TK-10 renal)
1 | O=C(c1cccs1)c1c(C(F)(F)F)n([O-])c2cc(Cl)c(Cl)cc2[n+]1=O | 0.423 µM | 0.853 µM | 0.872 µM | 2.68 µM | 1.41 µM | 2.85 | 2.02 µM | 4.11 µM | 0.405 µM | > 100 | 0.919 µM | 2.37 µM | 1.88 µM | 4.61 µM | 1.31 µM | 2.83 µM | 0.0876 µM | 0.865 µM | 1.55 µM | 2.95 µM
2 | COc1cc2nnc3c4cccnc4[nH]c3c2cc1OC | 0.298 µM and 0.333 µM | 3.54 µM and 1.52 µM | 4.32 µM and 2.1 µM | 18.3 µM and 5.11 µM | 0.771 µM and 0.212 µM |  | 4.21 µM and 3.7 µM | 50 µM and 82.7 µM | 1.81 µM and 1.34 µM |  | 11.1 µM and 2.34 µM | 40.5 µM and 6.71 µM | 18.8 µM and 4.49 µM | 50 µM and > 100 µM | 1.9 µM and 2.27 µM | 19.2 µM and 8.47 µM | 0.961 µM and 0.444 µM | 50 µM and > 100 µM | 10.3 µM and 2.38 µM | 50 µM and 7.83 µM
3 | CC(C)C[C@@H]1NC(=O)[C@@H]2CCCN2C(=O)[C@@H]2CCCN2C(=O)[C@H](CC(C)C)NC(=O)[C@H](CO)NC(=O)[C@H](CCCCN)NC(=O)[C@H]([C@H](C)O)NC(=O)[C@@H]2CSSC[C@@H](NC1=O)C(=O)N[C@@H](Cc1ccccc1)C(=O)N1CCC[C@H]1C(=O)N[C@@H](CC(=O)O)C(=O)NCC(=O)N[C@@H](CCCN=C(N)N)C(=O)N2 (cyclo(C[aThr]KSLPPL[dC]FPDGR); disulfide 1-9) | > 50 µM | > 50 µM | > 50 µM | > 50 µM | > 50 µM | > 50 | > 50 µM | > 50 µM | > 50 µM | > 50 | > 50 µM | > 50 µM | > 50 µM | > 50 µM | > 50 µM | > 50 µM | > 50 µM | > 50 µM | > 50 µM | > 50 µM
4 | Cc1cc(Br)c(NC(=O)c2c(-c3c(Cl)cccc3Cl)noc2C)c(Br)c1 | > 100 µM | > 100 µM | 90.8 µM | > 100 µM | > 100 µM | > 100 | 26.5 µM | > 100 µM | > 100 µM | > 100 | > 100 µM | > 100 µM | > 100 µM | > 100 µM | > 100 µM | > 100 µM | > 100 µM | > 100 µM | > 100 µM | > 100 µM
5 | CC(=O)Oc1c(C(=O)[O-])cc(C(C)C)cc1C(C)C.CC(=O)Oc1c(C(=O)[O-])cc(C(C)C)cc1C(C)C.CC(=O)Oc1c(C(=O)[O-])cc(C(C)C)cc1C(C)C.CC(=O)Oc1c(C(=O)[O-])cc(C(C)C)cc1C(C)C.[Cu+2].[Cu+2] | 75.2 µM | > 100 µM | 34.2 µM | > 100 µM | 45.5 µM | > 100 | 50.5 µM | > 100 µM | 37.5 µM | > 100 | 20.1 µM | 52.7 µM | 17.9 µM | 33.4 µM | 19.8 µM | 65.9 µM | 42.1 µM | > 100 µM | 33.7 µM | > 100 µM
6 | NC(N)=NCCCC(NCc1c2ccccc2nc2ccccc12)C(=O)O (stereo not drawn) |  | > 100 µM |  | > 100 µM |  | > 83.5 |  | > 100 µM |  | > 66.4 |  | > 100 µM |  | > 100 µM |  | > 100 µM |  | > 100 µM |  | > 100 µM
7 | CCc1ccc(Nc2cc(C)c3ccc(O)cc3n2)cc1 | 5.82 µM | 19.5 µM | 12.1 µM | 28.1 µM | 2.81 µM | 10.8 | 10.3 µM | 31.8 µM | 3.57 µM | 12.5 | 3.34 µM | 15.6 µM | 11.7 µM | 24.7 µM | 6.24 µM | 23.5 µM | 5.48 µM | 20.2 µM | 14.1 µM | 27.8 µM
